Experimental data: US20030187048A1, “Method for inhibiting skin lesion formation using histamine as the active ingredient” (priority 1991, published 2003)
“And” between values parts separate entries of the source, which are not always exact repeats. Identical values can stand only once. Like-named read-outs stand apart in the source and are kept apart here.

What was measured:
Allergic Conjunctivitis = tested on: Allergic Conjunctivitis
Protocol: The composition of the present invention includes initial preparation of a gel base by adding 0.8% CARBOPOL 940, which is a vinyl polymer, to distilled water. This mixture was allowed to stand for several hours until the polymer was wetted and a gel was formed. This mixture then was blended by means of a ordinary high speed mixer, such as a Lightning Labmaster II until a homogenous mixture is formed. At this point, a neutralizing and emulsifying agent such as an amino alcohol was added, forming an emulsion. […] This composition then was applied topically to various types of lesions, as subsequently described. […] Propylparaben or methylparaben may be used as a preservative. For “unidose” dispensers containing only two to three drops, no preservatives are used, as it is known that preservatives in ophthalmic solutions frequently cause undesirable side effects. The term semi-synthetic water soluble polymer as used herein includes hydroxy methylcellulose or carboxy methylcellulose. Carbopol is widely available in different viscosities.
Treatment consisted of topical ophthalmic application of both ophthalmic solution concentrations to their randomly assigned patients 2 times a day for 5 days. […] Each patient was clinically evaluated at 48 hours and 120 hours following the initiation of treatment for 2 parameters of tissue damage associated with Allergic Conjunctivitis. In addition, each patient was asked to evaluate subjectively 3 symptoms associated with Allergic Conjunctivitis 48 hours and 120 hours after treatment initiation. The percent reduction from the initial presentation of each of the parameters of tissue damage and the initial presentation for each additional symptom evaluated was calculated from 48 and 120 hour post treatment initiation data.
Patients were randomly assigned to one of two active levels being evaluated.
Clinical evaluation was performed at 48 hours and 120 hours post treatment initiation. Each patient was asked to subjectively evaluate 3 additional symptoms associated with Allergic Conjunctivitis by rating each symptom on a scale of 0 to 5 with 0 representing no evidence of symptom and 5 representing the greatest evidence of the symptom ever by the patient. clinical evaluation of tissue damage parameters was also done using the same scale of 0 to 5.
Patient compliance with the treatment regimen and the use of other medications was also evaluated.

thermal burn injuries = details: for Height in mm of Blister / Height in mm of Swelling of Soft Tissue Surrounding Burn Site / Subjective Evaluation of Tenderness on Palpations (rated 0 to 5) / Zone of Erythema Surrounding Burn Site (mm): per burn site
[1] = tested on: active herpes labialis lesions; details: 0.0275% gel
From the text: An additional gel concentration (0.0275%) was' used on two patients for active herpes labialis lesions.

[2] = 0.0067% ophth soln, 48 hrs, per patient
[3] = 0.0067% ophth soln, 120 hrs, per patient
[4] = 0.0067% ophth soln, scale 0 to 5, per patient
[5] = 0.0045% gel, from greatest value of that burn site
[6] = 0.009% gel, from greatest value of that burn site

NCCc1c[nH]cn1 [IEP, 1H-imidazole-4-ethanamine,phosphate]
Edema, Percent Reduction from Pre-Treatment Value (Allergic Conjunctivitis; [2]): 66.67% and 50.0% and 100.0%
Itching, Percent Reduction from Pre-Treatment Value (Allergic Conjunctivitis; [2]): 100.0% (2×) and 50.0%
Level of Discomfort, Percent Reduction from Pre-Treatment Value (Allergic Conjunctivitis; [2]): 66.67% and 75.0% and 100.0%
Redness, Percent Reduction from Pre-Treatment Value (Allergic Conjunctivitis; [2]): 66.67% (2×) and 75.0%
Tearing, Percent Reduction from Pre-Treatment Value (Allergic Conjunctivitis; [2]): 100.0% and 50.0%
Edema, Percent Reduction from Pre-Treatment Value (Allergic Conjunctivitis; [3]): 100.0%
Itching, Percent Reduction from Pre-Treatment Value (Allergic Conjunctivitis; [3]): 100.0%
Level of Discomfort, Percent Reduction from Pre-Treatment Value (Allergic Conjunctivitis; [3]): 66.7% and 100.0% (2×)
Redness, Percent Reduction from Pre-Treatment Value (Allergic Conjunctivitis; [3]): 100.0% and 75.0% and 66.67%
Tearing, Percent Reduction from Pre-Treatment Value (Allergic Conjunctivitis; [3]): 100.0% (2×) and 75.0%
Conjunctival Injection or Redness, Value at 48 Hours (Allergic Conjunctivitis; [4]): 1 (2×) and 3
Edema, Value at 120 Hours (Allergic Conjunctivitis; [4]): 0
Itching, Value at 120 Hours (Allergic Conjunctivitis; [4]): 0
Difference in percent reduction of tissue damage parameters and symptoms vs placebo ophthalmic solution (Allergic Conjunctivitis; 0.0067% ophthalmic solution): either significant (p<0.05) or highly significant (p<.O1)
Untoward effects (Allergic Conjunctivitis; in vivo): no untoward effects
Height in mm of Blister (thermal burn injuries; 0.0045% gel, 3.5 hours): 3 mm and 2 mm
Height in mm of Swelling of Soft Tissue Surrounding Burn Site (thermal burn injuries; 0.0045% gel, 3.5 hours): 1 mm
Subjective Evaluation of Tenderness on Palpations (rated 0 to 5) (thermal burn injuries; 0.0045% gel, 3.5 hours): 3 and 5
Zone of Erythema Surrounding Burn Site (mm) (thermal burn injuries; 0.0045% gel, 3.5 hours): 8 mm and 4 mm
Height in mm of Blister (thermal burn injuries; 0.0045% gel, 8 hours): 2.5 mm and 1.5 mm
Height in mm of Swelling of Soft Tissue Surrounding Burn Site (thermal burn injuries; 0.0045% gel, 8 hours): 1 mm
Subjective Evaluation of Tenderness on Palpations (rated 0 to 5) (thermal burn injuries; 0.0045% gel, 8 hours): 2 and 4
Zone of Erythema Surrounding Burn Site (mm) (thermal burn injuries; 0.0045% gel, 8 hours): 6 mm and 3 mm
Height in mm of Blister (thermal burn injuries; 0.0045% gel, 22 hours): 1.5 mm and 1 mm
Subjective Evaluation of Tenderness on Palpations (rated 0 to 5) (thermal burn injuries; 0.0045% gel, 22 hours): 2 and 4
% Reduction in Tissue Damage at 22 Hours: Height of Blister (thermal burn injuries; [5]): 50.0%
% Reduction in Tissue Damage at 22 Hours: Swelling of Surrounding Tissue (thermal burn injuries; [5]): 100.0% and 50.0%
% Reduction in Tissue Damage at 22 Hours: Zone of Erythema (mm) (thermal burn injuries; [5]): 66.7% and 81.3%
Height in mm of Blister (thermal burn injuries; 0.009% gel, 3.5 hours): 2 mm
Height in mm of Swelling of Soft Tissue Surrounding Burn Site (thermal burn injuries; 0.009% gel, 3.5 hours): 1 mm
Subjective Evaluation of Tenderness on Palpations (rated 0 to 5) (thermal burn injuries; 0.009% gel, 3.5 hours): 2 and 3
Zone of Erythema Surrounding Burn Site (mm) (thermal burn injuries; 0.009% gel, 3.5 hours): 6 mm and 4 mm
Height in mm of Blister (thermal burn injuries; 0.009% gel, 8 hours): 1 mm
Height in mm of Swelling of Soft Tissue Surrounding Burn Site (thermal burn injuries; 0.009% gel, 8 hours): 0 mm
Subjective Evaluation of Tenderness on Palpations (rated 0 to 5) (thermal burn injuries; 0.009% gel, 8 hours): 2
Zone of Erythema Surrounding Burn Site (mm) (thermal burn injuries; 0.009% gel, 8 hours): 4 mm and 3 mm
Height in mm of Swelling of Soft Tissue Surrounding Burn Site (thermal burn injuries; 0.009% gel, 22 hours): 0 mm
Subjective Evaluation of Tenderness on Palpations (rated 0 to 5) (thermal burn injuries; 0.009% gel, 22 hours): 1
Zone of Erythema Surrounding Burn Site (mm) (thermal burn injuries; 0.009% gel, 22 hours): 2 mm
% Reduction in Tissue Damage at 22 Hours: Height of Blister (thermal burn injuries; [6]): 75.0% and 100.0%
% Reduction in Tissue Damage at 22 Hours: Swelling of Surrounding Tissue (thermal burn injuries; [6]): 100.0%
% Reduction in Tissue Damage at 22 Hours: Tenderness on Palpation (thermal burn injuries; [6]): 80.0%
% Reduction in Tissue Damage at 22 Hours: Zone of Erythema (mm) (thermal burn injuries; [6]): 77.8% and 75.0%
Difference in tissue damage parameters vs placebo (thermal burn injuries; 0.009% vs placebo, p<.O1 for 3 of the 4 parameters, fourth p<0.05): highly significant
Untoward events or significant complications (thermal burn injuries; in vivo): no untoward events or significant complications
Difference in lesion decay rates vs placebo gel ([1]; p<0.05): statistically significant
Standardized Decay Rate/24 hrs ([1]; per patient): 56.55 and 36.36
